Key:
HRoV = HRoV inhibition assay on MA104 cells; assay type: cell-based, Human rotavirus strain Wa
Protocol: MA104 cell were plated in 96-well trays. The following day virus infectivity was activated by adding 5 μg porcine trypsin (Sigma)/mL for 30 min at 37°C. […] After 16 h, cells were fixed with cold acetone–methanol and viral titers were determined by indirect immunostaining using the monoclonal antibody mab-0036 (specific for human 41 kDa inner capsid protein–VP6 –of rotavirus) purchased from Covalab (Villeurbanne, France) and the UltraTech HRP Streptavidin-Biotin Detection System (Beckman Colter).

Ad5 = Ad5 inhibition assay on HeLa cells; assay type: cell-based, Adenovirus 5
Protocol: (§1) HeLa cells were plated in 96-well plates. […] The GFP-expressing infected cells were observed under an inverted Zeiss LSM510 fluorescence microscope (Zeiss, Oberkochen, Germany) and the percentages of infection were calculated by comparing GFP positive cells in treated and untreated wells.

VSV = experiment: microbe, parasite or virus in culture; assay type: cell-based; conditions: Vesicular stomatitis virus
HSV-2 [1] = experiment: Virucidal assay; assay type: cell-based; conditions: for viral infectivity: 10 μM of compound
[2] = system: HSV-2 acyclovir resistant strain; experiment: microbe, parasite or virus in culture; assay type: cell-based
IAV H1N1 = IAV H1N1 inhibition assay on MDCK cells; conditions: Influenza A virus
Protocol: MDCK cells were pre-plated in 96-well plates. The following day, increasing concentrations of compounds were mixed with IAV (MOI 0.05) and incubated for 1 h at 37°C. The mixtures were subsequently added to the cells for 1 h at 37°C, after a washout cells were overlaid with medium for 16 h at 37°C. Cells were then fixed and subjected to specific immunostaining using a Flu A monoclonal antibody (Merck 5001) in order to visualize infected cells. Percentages of infection were calculated by comparing numbers of infected cells in treated and untreated wells.

HSV-2 [3] = experiment: Time of addition: pretreatment of cells before HSV-2 infection; assay type: cell-based; conditions: compound on cells 2 h before infection, then removed
Protocol: We performed assays aimed at better understanding the mechanism of action. In the pretreatment assay compound 9d was added on cells before the virus in order to determine if the antiviral activity was due to an interaction with the cells. Moreover, an assay was conducted adding virus and compound on cells without the preincubation performed in previous assays.
Fig 4 Time of addition assays. Compound 9d was added on cells 2 h before infection (PRE-TREATMENT CELLS) and subsequently the inocula were removed and cells were infected or compound and virus were added simultaneously on cells (DURING INFECTION) or after 1 h pre-incubation between the virus and the compound (PRE-TREATMENT VIRUS). Cells were fixed and stained 24 h later and plaques were counted.
Pretreatment: cells were pretreated for 2 h at 37°C with increasing concentrations of compounds, the inocula were then removed, cells washed and HSV-2 was added on cells for 2 h at 37°C. Subsequently the same protocol described above was followed.

HSV-1 = HSV-1 plaquing efficiency assay; assay type: cell-based
[4] = Cell viability MTS assay, conditions of the HPV-16 and Ad5 assays; assay type: cell-based; conditions: human, HeLa cells; conditions of HPV-16 assay
Protocol: Cell viability was measured using the MTS [3- (4,5-dimethylthiazol-2-yl)-5- (3 carboxy methoxy phenyl)-2-(4-sulfophenyl)-2H-tetrazolium] assay. Cell cultures were seeded in 96-well plates and were incubated with different concentrations of compounds in duplicate under the same experimental conditions described for the antiviral assays, (i.e. if the incubation time of the compound on cells was carried for 2 hours and then the evaluation of the antiviral activity was done 72h later, the same timing was used for the cytotoxicity assays, in order to exclude any toxicity effect in the antiviral evaluation). Cell viability was determined using the CellTiter 96 Proliferation Assay Kit (Promega, Madison, WI, USA) according to the manufacturer's instructions. Absorbances were measured using a Microplate Reader (Model 680, BIORAD) at 490 nm. The effect on cell viability at different concentrations of the compound was expressed as a percentage, by comparing absorbances of treated cells with those of cells incubated with culture medium and equal volumes of vehicle. […]
as §1

[5] = Cell viability MTS assay, conditions of the IAV assay; assay type: cell-based, Canine; conditions: dog, MDCK cells
Protocol: Cell viability was measured using the MTS [3- (4,5-dimethylthiazol-2-yl)-5- (3 carboxy methoxy phenyl)-2-(4-sulfophenyl)-2H-tetrazolium] assay. Cell cultures were seeded in 96-well plates and were incubated with different concentrations of compounds in duplicate under the same experimental conditions described for the antiviral assays, (i.e. if the incubation time of the compound on cells was carried for 2 hours and then the evaluation of the antiviral activity was done 72h later, the same timing was used for the cytotoxicity assays, in order to exclude any toxicity effect in the antiviral evaluation). Cell viability was determined using the CellTiter 96 Proliferation Assay Kit (Promega, Madison, WI, USA) according to the manufacturer's instructions. Absorbances were measured using a Microplate Reader (Model 680, BIORAD) at 490 nm. The effect on cell viability at different concentrations of the compound was expressed as a percentage, by comparing absorbances of treated cells with those of cells incubated with culture medium and equal volumes of vehicle. The 50% cytotoxic concentrations (CC50) and 95% confidence intervals (CIs) were determined using Prism software (Graph-Pad Software, San Diego, CA). For compound 9d a continuous incubation of 1, 2, 3 and 4 days on Vero cells was carried in order to evaluate the toxicity after long exposure the results are shown in S1 Fig and Fig 3.

HCMV = HCMV inhibition assay on HELF cells; assay type: cell-based, HCMV strain Towne; conditions: Human betaherpesvirus 5, HELF
Protocol: HELF cells were pre-plated in a 96-well plate. […] After five days incubation, cells were observed under an inverted Zeiss LSM510 fluorescence microscope (Zeiss, Oberkochen, Germany) and the percentages of infection were calculated by comparing GFP positive cells in treated and untreated wells.

ZIKV = ZIKV plaquing efficiency assay; assay type: cell-based, Zika virus (PRVABC59); conditions: Zika virus, ZIKAV
in vitro = conditions: African green monkey

CC(C)c1ccc(CCN2C(=O)/C(=C/c3ccc(-c4ccc(C(=O)O)c(O)c4)o3)SC2=S)cc1 [Compound 9d, (Z)-2-hydroxy-4-(5-((3-(4-isopropylphenethyl)-4-oxo-2-thioxothiazolidin-5-ylidene)methyl)furan-2-yl)benzoic acid]
antiviral activity against non-enveloped virus (HRoV): inactive | antiviral activity against non-enveloped virus (Ad5): inactive | EC50 (VSV; read-out: EC50 (95% C.I.)): 0.0132 µM | EC90 (VSV; read-out: EC90 (95% C.I.)): 0.117 µM | viral infectivity (HSV-2 [1]; 15' post treatment): decreased | viral infectivity (HSV-2 [1]; from 30' on): completely abrogated | infectivity after dilution in drug free medium (HSV-2 [1]; 1h incubation, then diluted for additional 1, 2, 3 or 4 hours): not regained | EC50 (HSV-2 [1]; Human alphaherpesvirus 2, virucidal assay, 1h of exposure, 10^5 pfu HSV-2): 0.0373 µM | EC50 ([2]; Human alphaherpesvirus 2, read-out: EC50 (95% C.I.)): 0.0016 µM | EC90 ([2]; Human alphaherpesvirus 2, read-out: EC90 (95% C.I.)): 0.0243 µM | EC50 (IAV H1N1; read-out: EC50 (95% C.I.)): 0.0661 µM | EC90 (IAV H1N1; read-out: EC90 (95% C.I.)): 0.301 µM | antiviral activity in pre-treatment assay (HSV-2 [3]): not active | EC50 (HSV-1; Human alphaherpesvirus 1, read-out: EC50 (95% C.I.)): 0.00218 µM | EC90 (HSV-1; Human alphaherpesvirus 1, read-out: EC90 (95% C.I.)): 0.0351 µM | melting point: 259 °C (dec.) | CC50 at 72 h [4]: 94.2 µM | CC50 at 1 h [5]: 136 µM | EC50 (HCMV; read-out: EC50 (95% C.I.)): 0.00422 µM | EC90 (HCMV; read-out: EC90 (95% C.I.)): 0.0313 µM | EC50 (ZIKV; read-out: EC50 (95% C.I.)): 0.0699 µM | EC90 (ZIKV; read-out: EC90 (95% C.I.)): 0.147 µM | CC50 (in vitro): 24.8 µM

Source: publication PMC6285983, “Novel broad spectrum virucidal molecules against enveloped viruses” (PLoS ONE, 2018)
